Converted amounts (≈) assume the structure as drawn.
How the values were obtained:
H. influenzae 49766 = experiment: MIC against Haemophilus strains; format: cell-based; conditions: s. No. 6, H. influenzae 49766
S. pneumoniae AB 29 = experiment: MIC, agar incorporation method; format: cell-based, Streptococcus pneumoniae; conditions: S. No. 46, S. pneumoniae AB 29
[1] = tested on: S. epidermidis (MRSE) 23760; experiment: MIC, agar incorporation method; format: cell-based, Staphylococcus epidermidis; conditions: S. No. 11, S. epidermidis (MRSE) 23760
[2] = tested on: S. aureus (MRSA 33) Cipro R; experiment: MIC, agar incorporation method; format: cell-based, Staphylococcus aureus; conditions: S. No. 7, S. aureus (MRSA 33) Cipro R
S. aureus (MRSA) 21299 = experiment: MIC, agar incorporation method; format: cell-based, Staphylococcus aureus; conditions: S. No. 5, S. aureus (MRSA) 21299
S. pneumoniae AB 23 = experiment: MIC, agar incorporation method; format: cell-based, Streptococcus pneumoniae; conditions: S. No. 43, S. pneumoniae AB 23
S. pneumoniae AB4 = experiment: MIC, agar incorporation method; format: cell-based, Streptococcus pneumoniae; conditions: S. No. 33, S. pneumoniae AB4
Moraxella cata. M2 = experiment: MIC, agar incorporation method; format: cell-based; conditions: S. No. 59, Moraxella cata. M2
S. pneumoniae AB-2 = experiment: MIC, agar incorporation method; format: cell-based, Streptococcus pneumoniae; conditions: S. No. 31, S. pneumoniae AB-2
S. pyogenes 20361 = experiment: MIC, agar incorporation method; format: cell-based, Streptococcus pyogenes; conditions: S. No. 53, S. pyogenes 20361
S. aureus ATCC 25923 = experiment: MIC, agar incorporation method; format: cell-based, Staphylococcus aureus; conditions: S. No. 1, organism cell empty
E. faecalis 21777 = experiment: MIC, agar incorporation method; format: cell-based; conditions: S. No. 18, E. faecalis 21777
E. faecalis SP 346 (VRE) = experiment: MIC, agar incorporation method; format: cell-based; conditions: S. No. 20, E. faecalis SP 346 (VRE)
K. oxytoca 49131 = experiment: MIC, agar incorporation method; format: cell-based; conditions: S. No. 27, K. oxytoca 49131
S. pneumoniae AB 10 = experiment: MIC, agar incorporation method; format: cell-based, Streptococcus pneumoniae; conditions: S. No. 35, S. pneumoniae AB 10
E. faecalis 29212 = experiment: MIC, agar incorporation method; format: cell-based; conditions: S. No. 17, E. faecalis 29212
S. pyogenes 19615 = experiment: MIC, agar incorporation method; format: cell-based, Streptococcus pyogenes; conditions: S. No. 51, S. pyogenes 19615
P. aeruginosa ATCC 27853 = experiment: MIC, agar incorporation method; format: cell-based; conditions: S. No. 28, P. aeruginosa ATCC 27853
S. pneumoniae AB 17 = experiment: MIC, agar incorporation method; format: cell-based, Streptococcus pneumoniae; conditions: S. No. 40, S. pneumoniae AB 17
[3] = tested on: S. epidermidis ATCC 12228; experiment: MIC, agar incorporation method; format: cell-based, Staphylococcus epidermidis; conditions: S. No. 10, S. epidermidis ATCC 12228
S. pneumoniae 1256 = experiment: MIC, agar incorporation method; format: cell-based, Streptococcus pneumoniae; conditions: S. No. 56, S. pneumoniae 1256
S. pneumoniae AB-3 = experiment: MIC, agar incorporation method; format: cell-based, Streptococcus pneumoniae; conditions: S. No. 32, S. pneumoniae AB-3
S. pneumoniae AB 30 = experiment: MIC, agar incorporation method; format: cell-based, Streptococcus pneumoniae; conditions: S. No. 47, S. pneumoniae AB 30
S pneumoniae 1294. = experiment: MIC, agar incorporation method; format: cell-based, Streptococcus pneumoniae; conditions: S. No. 55, S pneumoniae 1294.
S. pneumoniae 1275 = experiment: MIC, agar incorporation method; format: cell-based, Streptococcus pneumoniae; conditions: S. No. 57, S. pneumoniae 1275

SMILES | MIC (H. influenzae 49766) | MIC (S. pneumoniae AB 29) | MIC [1] | MIC [2] | MIC (S. aureus (MRSA) 21299) | MIC (S. pneumoniae AB 23) | MIC (S. pneumoniae AB4) | MIC (Moraxella cata. M2) | MIC (S. pneumoniae AB-2) | MIC (S. pyogenes 20361) | MIC (S. aureus ATCC 25923) | MIC (E. faecalis 21777) | MIC (E. faecalis SP 346 (VRE)) | MIC (K. oxytoca 49131) | MIC (S. pneumoniae AB 10) | MIC (E. faecalis 29212) | MIC (S. pyogenes 19615) | MIC (P. aeruginosa ATCC 27853) | MIC (S. pneumoniae AB 17) | MIC [3] | also measured
CC(=O)NC[C@H]1CN(c2ccc(N3CCN(c4cc(C(OC(C)=O)OC(C)=O)sc4[N+](=O)[O-])CC3)c(F)c2)C(=O)O1 [Compound No. 5, (S)—N-[[3-[3-Fluoro-4-[4-{3-thienyl(2-nitro)-5-acetyloxy}methylacetate]-1-piperazinyl]phenyl]-2-oxo-5-oxazolidinyl]acetamide] | >16 µg/mL | 0.5 µg/mL (≈ 0.842 µM) | <0.06 µg/mL | 0.25 µg/mL (≈ 0.421 µM) | 0.25 µg/mL (≈ 0.421 µM) | 0.5 µg/mL (≈ 0.842 µM) | 0.5 µg/mL (≈ 0.842 µM) | 2 µg/mL (≈ 3.37 µM) | 0.25 µg/mL (≈ 0.421 µM) | 0.5 µg/mL (≈ 0.842 µM) | 0.5 µg/mL (≈ 0.842 µM) | 1 µg/mL (≈ 1.68 µM) | 2 µg/mL (≈ 3.37 µM) | >8 µg/mL | 0.25 µg/mL (≈ 0.421 µM) | 2 µg/mL (≈ 3.37 µM) | 0.5 µg/mL (≈ 0.842 µM) | >8 µg/mL | 0.5 µg/mL (≈ 0.842 µM) | <0.06 µg/mL | MIC (S. pneumoniae 1256): 0.25 µg/mL (≈ 0.421 µM); MIC (S. pneumoniae AB-3): 0.5 µg/mL (≈ 0.842 µM); MIC (S. pneumoniae AB 30): 0.5 µg/mL (≈ 0.842 µM); MIC (S pneumoniae 1294.): 0.5 µg/mL (≈ 0.842 µM); MIC (S. pneumoniae 1275): 0.25 µg/mL (≈ 0.421 µM)
CC(=O)NC[C@H]1CN(c2ccc(N3CCN(c4ccc([N+](=O)[O-])s4)CC3)cc2)C(=O)O1 [Compound No. 6, (S)—N-[[3-[4-[N-1-(5-nitro-2-thienyl)piperazinyl]-phenyl]-2-oxo-5-oxazolidinyl]-methyl]-acetamide] | 16 µg/mL (≈ 35.9 µM) | 0.5 µg/mL (≈ 1.12 µM) | 1 µg/mL (≈ 2.24 µM) | 1 µg/mL (≈ 2.24 µM) | 1 µg/mL (≈ 2.24 µM) | 0.5 µg/mL (≈ 1.12 µM) | 0.25 µg/mL (≈ 0.561 µM) | 8 µg/mL (≈ 18 µM) | 0.25 µg/mL (≈ 0.561 µM) | 0.5 µg/mL (≈ 1.12 µM) | 2 µg/mL (≈ 4.49 µM) | 1 µg/mL (≈ 2.24 µM) | 1 µg/mL (≈ 2.24 µM) | >16 µg/mL | 0.25 µg/mL (≈ 0.561 µM) | 1 µg/mL (≈ 2.24 µM) | 0.5 µg/mL (≈ 1.12 µM) | >16 µg/mL | 0.25 µg/mL (≈ 0.561 µM) | 1 µg/mL (≈ 2.24 µM) | MIC (S. pneumoniae 1256): 0.25 µg/mL (≈ 0.561 µM); MIC (S. pneumoniae AB-3): 0.25 µg/mL (≈ 0.561 µM); MIC (S. pneumoniae AB 30): 0.5 µg/mL (≈ 1.12 µM); MIC (S pneumoniae 1294.): 0.5 µg/mL (≈ 1.12 µM); MIC (S. pneumoniae 1275): 0.25 µg/mL (≈ 0.561 µM)

Source: patent publication US20060293307A1, “Oxazolidinone derivatives as antimicrobials” (priority 2002, published 2006)
